The target of one experiment is Human DGAT2 (hDGAT2) (Homo sapiens (Human), UniProt Q96PD7). Nature of the experiment: In vitro DGAT2 assay, IC50 determination with hDGAT2 membrane fraction. In kind it is biochemical. The settings on record: geometric mean. The method, boiled down: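 CHAPS-solubilized membrane fraction of FLAG-tagged hDGAT2 from baculovirus-infected SF9 cells (0.01 mg/mL) in 100 mM Hepes-NaOH pH 7.4, 20 mM MgCl2, 200 nM methyl arachidonyl fluorophosphonate; compounds pre-incubated 20 min with 0.04% BSA. Reaction 40 min at room temperature, stopped with H3PO4. [^14C]tridecanoylglycerol in organic phase counted; 11-point geometric mean IC50.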

A further experiment addresses DGAT2 (Homo sapiens (Human), UniProt Q96PD7). Nature of the experiment: IC50 determination for DGAT2 inhibitors in human hepatocytes ([1,3-14C]-glycerol incorporation into lipids). The experiment is classed as cell-based. The settings on record: average IC50; cryopreserved human hepatocytes, selective DGAT1 inhibitor (3 μM) in all wells, 3 hour incubation with [1,3-14C]-glycerol; read-out: IC50 (nM) in primary human hepatocyte. The procedure: For evaluation of the effects of DGAT2 inhibitors in a cell-based setting, cryopreserved human hepatocytes (Lot QOC, Celsis, Chicago, Ill.) were thawed and plated onto type I collagen-coated plates according to the manufacturer's instructions. After 24 hours overnight recovery period, the cells were overlayed with media containing 250 μg/ml Matrigel (BD Biosciences, San Jose, Calif.). The following day, media was aspirated and replaced with serum-free Williams Media E (Life Technologies, Grand Island, N.Y.) containing 400 μM sodium dodecanoate (Sigma-Aldrich, St. Louis, Mo.). Forty minutes later, DGAT2 inhibitors (prepared as 100× stocks in 25% DMSO, 75% Williams' Media E) were added to the desired final concentration. […] After a 20 minute preincubation, 0.2 μCi [1,3-^14C]-glycerol (American Radio Chemicals, St. Louis, Mo.) was added to each well and mixed by gentle pipetting prior to a 3 hour incubation. At this point, media was aspirated and the cells were lysed in isopropyl alcohol:tetrahydrofuran (9:1) prior to centrifugation at 3000 rpm for 5 minutes. Radiolabeled lipids were resolved using a 2-solvent system by thin layer chromatography using standard technique (solvent 1 contained ethyl acetate: isopropyl alcohol: chloroform:methanol:0.25% potassium chloride in water (100:100:100:40.2:36.1, v/v/v/v) and solvent 2 contained hexane: diethyl ether: acetic acid (70:27:3, v/v/v)). After separation, radiolabeled lipids were visualized using a Molecular Dynamics' PhosphorImager system. The half maximal inhibitory concentrations (IC50 values) were determined using Graph Pad Prism (GraphPad Software, Inc., La Jolla, Calif.).

Where [1] appears, read: background for complete inhibition of DGAT2 obtained with 50 μM (1R,2R)-2-({3′-Fluoro-4′-[(6-fluoro-1,3-benzothiazol-2-yl)amino]-1,1′-biphenyl-4-yl}carbonyl)cyclopentanecarboxylic acid, read-out: DGAT2 IC50.
The mark [2] stands for this setting: background for complete inhibition of DGAT2 obtained with Example 196-A instead of the cyclopentanecarboxylic acid reference, read-out: DGAT2 IC50 (nM), values in the parentheses.

Where two headings read alike, the source gives them in different places.

Sequence of DGAT2 (Q96PD7 whole entry): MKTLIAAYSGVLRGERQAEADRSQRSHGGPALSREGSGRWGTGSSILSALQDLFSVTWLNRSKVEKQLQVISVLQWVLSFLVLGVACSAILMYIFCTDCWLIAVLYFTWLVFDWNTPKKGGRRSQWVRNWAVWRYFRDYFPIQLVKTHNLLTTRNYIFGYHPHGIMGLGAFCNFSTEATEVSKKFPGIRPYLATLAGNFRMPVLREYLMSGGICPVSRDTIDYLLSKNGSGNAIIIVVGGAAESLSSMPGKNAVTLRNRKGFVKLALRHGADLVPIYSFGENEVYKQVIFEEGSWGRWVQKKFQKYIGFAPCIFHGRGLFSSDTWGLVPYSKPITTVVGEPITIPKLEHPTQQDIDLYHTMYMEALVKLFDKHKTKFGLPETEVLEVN
Sequence of Human DGAT2 (hDGAT2) (Q96PD7 whole entry): as above

On to `N#Cc1cnn(C2(c3nc4ccc(N5CCC[C@@H](C(=O)N6CCCC6)C5)nc4[nH]3)CC2)c1` [Example 76, (R)-1-(1-(5-(3-(Pyrrolidine-1-carbonyl)piperidin-1-yl)-3H-imidazo[4,5-b]pyridin-2-yl)cyclopropyl)-1H-pyrazole-4-carbonitrile], for which the IC50 at Human DGAT2 (hDGAT2) (setting [1]) was found to be 227 nM; at DGAT2, 25.1 nM.

Regarding `O=C([C@@H]1CCCN(c2ccc3nc(C4(n5cc(C(F)(F)F)cn5)CC4)[nH]c3n2)C1)N1CCCC1` [Example 78, (R)-Pyrrolidin-1-yl(1-(2-(1-(4-(trifluoromethyl)-1H-pyrazoL-1-yl)cyclopropyl)-3H-imidazo[4,5-b]pyridin-5-yl)piperidin-3-yl)methanone], the figures for the IC50 on Human DGAT2 (hDGAT2) (setting [1]) and at DGAT2 were 83.8 nM and 9.4 nM, respectively.

As to `O=C([C@@H]1CCCN(c2ccc3nc(C4(c5cccnc5)CC4)[nH]c3n2)C1)N1CCCC1` [Example 81, (R)-(1-(2-(1-(Pyridin-3-yl)cyclopropyl-1)-3H-imidazo[4,5-b]pyridin-5-yl)piperidin-3-yl)(pyrrolidin-1-yl)methanone], the IC50 was found to be 204 nM at Human DGAT2 (hDGAT2) (setting [1]) and 47.7 nM at DGAT2.

On to `O=C([C@@H]1CCCN(c2ccc3nc(C4(c5ccccn5)CC4)[nH]c3n2)C1)N1CCCC1` [Example 82, (R)-(1-(2-(1-(Pyridin-2-yl)cyclopropyl)-3H-imidazo[4,5-b]pyridin-5-yl)piperidin-3-yl)(pyrrolidin-1-yl)methanone], for which the IC50 came to 165 nM on Human DGAT2 (hDGAT2) (setting [1]) and 15.8 nM on DGAT2.

In the case of `O=C([C@@H]1CCCN(c2ccc3nc(-c4ccnc(C5CC5)n4)[nH]c3n2)C1)N1CCCC1` [Example 95, (R)-(1-(2-(2-Cyclopropylpyrimidin-4-yl)-3H-imidazo[4,5-b]pyridin-5-yl)piperidin-3-yl)(pyrrolidin-1-yl)methanone], the IC50 on Human DGAT2 (hDGAT2) (setting [1]) is 18.2 nM; at DGAT2, 15.9 nM.

On to `O=C([C@@H]1CCCN(c2ncc3nc(C4(n5cc(Cl)cn5)CC4)[nH]c3n2)C1)N1CCCC1` [Example 108, (R)-(1-(8-(1-(4-Chloro-1H-pyrazol-1-yl)cyclopropyl)-9H-purin-2-yl)piperidin-3-yl)(pyrrolidin-1-yl)methanone], for which the values for the IC50 on Human DGAT2 (hDGAT2) (setting [1]), on Human DGAT2 (hDGAT2) (setting [2]) and on DGAT2 were 28.7 nM, 26.2 nM and 2.8 nM, respectively.

Consider `O=C([C@H]1CN(c2ccc3nc(C4(n5cc(Cl)cn5)CC4)[nH]c3n2)CCO1)N1CCCC1` [Example 141, (R)-(4-(2-(1-(4-Chloro-1H-pyrazol-1-yl)cyclopropyl)-3H-imidazo[4,5-b]pyridin-5-yl)morpholin-2-yl)(pyrrolidin-1-yl)methanone], for which the IC50 was 354 nM at Human DGAT2 (hDGAT2) (setting [1]), 301 nM on Human DGAT2 (hDGAT2) (setting [2]) and 10.7 nM at DGAT2.

As to `O=C([C@H]1CN(c2ccc3nc(-c4cccc(C(F)F)n4)[nH]c3n2)CCO1)N1CCCC1` [Example 175, (R)-(4-(2-(6-(Difluoromethyl)pyridin-2-yl)-3H-imidazo[4,5-b]pyridin-5-yl)morpholin-2-yl)(pyrrolidin-1-yl)methanone], the IC50 on Human DGAT2 (hDGAT2) (setting [1]) is 91.3 nM; at DGAT2 it was 71.7 nM.

As for `C[C@@H](c1nc2ccc(N3CCC[C@@H](C(=O)N4CCCC4)C3)nc2[nH]1)n1cc(Cl)cn1` [Example 196-A, ((R)-1-(2-((S)-1-(4-Chloro-1H-pyrazol-1-yl)ethyl)-3H-imidazo[4,5-b]pyridin-5-yl)piperidin-3-yl)(pyrrolidin-1-yl)methanone], the values for the IC50 on Human DGAT2 (hDGAT2) (setting [1]), at Human DGAT2 (hDGAT2) (setting [2]) and at DGAT2 were 14.5 nM, 20.6 nM and 4.6 nM, respectively.

For `C[C@H](c1nc2ccc(N3CCC[C@@H](C(=O)N4CCCC4)C3)nc2[nH]1)n1cc(Cl)cn1` [Example 197, ((R)-1-(2-((R)-1-(4-chloro-1H-pyrazol-1-yl)ethyl)-3H-imidazo[4,5-b]pyridin-5-yl)piperidin-3-yl)(pyrrolidin-1-yl)methanone], the IC50 was determined as 33.7 nM on Human DGAT2 (hDGAT2) (setting [1]) and 5.5 nM at DGAT2.

In the case of `C[C@@H](c1nc2cnc(N3CCC[C@@H](C(=O)N4CCCC4)C3)nc2[nH]1)n1cc(Cl)cn1` [Example 198, ((R)-1-(8-((S)-1-(4-Chloro-1H-pyrazol-1-yl)ethyl)-9H-purin-2-yl)piperidin-3-yl)(pyrrolidin-1-yl)methanone], the IC50 on Human DGAT2 (hDGAT2) (setting [1]) stood at 43 nM; at DGAT2, 7.8 nM.

For the compound `C[C@H](c1nc2cnc(N3CCC[C@@H](C(=O)N4CCCC4)C3)nc2[nH]1)n1cc(Cl)cn1` [Example 199, ((R)-1-(8-((R)-1-(4-chloro-1H-pyrazol-1-yl)ethyl)-9H-purin-2-yl)piperidin-3-yl)(pyrrolidin-1-yl)methanone], the IC50 on Human DGAT2 (hDGAT2) (setting [1]) was 18.9 nM; at Human DGAT2 (hDGAT2) (setting [2]) it was 32.9 nM; on DGAT2, 2.5 nM.

Regarding `O=C([C@@H]1CCCN(c2ncc3nc(C4(n5cc(F)cn5)CC4)[nH]c3n2)C1)N1CCCC1` [Example 209, (R)-(1-(8-(1-(4-Fluoro-1H-pyrazol-1-yl)cyclopropyl)-9H-purin-2-yl)piperidin-3-yl)(pyrrolidin-1-yl)methanone], the IC50 on Human DGAT2 (hDGAT2) (setting [1]) was determined as 101 nM; at DGAT2, 8.9 nM.

Broadly, the IC50 is the point on the concentration scale where inhibition reaches its midpoint.

These data come from patent US9296745B2, “Diacylglycerol acyltransferase 2 inhibitors” (Pfizer Inc., priority 2012, dated 2016).
